Test results: patent US20260242353A1, “HETEROARYL DERIVATIVES AS DDRs INHIBITORS” (CHIESI FARMACEUTICI S.P.A., priority 2022, published 2026)

Legend:
[1] = biological target: T1, DDR1 (Homo sapiens, UniProt Q08345); assay: LanthaScreen Europium Kinase Binding assay, DDR1; conditions: 5 nM DDR1, 20 nM Kinase Tracer 178, 1 h at rt; Ki from IC50 by Cheng-Prusoff; read-out: Ki DDR1
T1 construct: purchased Carna Biosciences
Experimental: (§1) DDR1 and DDR2 binding assays were performed using Life Technologies LanthaScreen™ Europium Kinase Binding assay. The compounds were incubated with 5 nM DDR1 (Carna Biosciences) or 5 nM DDR2 (Life Technologies) for 1 h at rt in white 384-well OptiPlate (PerkinElmer), containing 20 nM or 10 nM Kinase Tracer 178 respectively and 2 nM Europium labelled anti-GST antibody (Life Technologies) in assay buffer (50 mM HEPES pH 7.5, 10 mM MgCI2, 1 mM EGTA and 0.01% BRIJ35). The ratio of fluorescence emission 665 nm/615 nm after excitation at 340 nm was obtained using the Tecan Spark 20M plate reader. IC50 values were determined in GraphPad Prism 7.0 software, using 4 parameter model: log(inhibitor) vs. response. IC50 values were converted in Ki using the Cheng-Prusoff equation (Ki=IC50/(1+[Tracer]/Kd).

[2] = biological target: T2, DDR2 (Homo sapiens, UniProt Q16832); assay: LanthaScreen Europium Kinase Binding assay, DDR2; conditions: 5 nM DDR2, 10 nM Kinase Tracer 178, 1 h at rt; Ki from IC50 by Cheng-Prusoff; read-out: Ki DDR2
T2 construct: purchased Life Technologies
T2 sequence (Q16832 22-855): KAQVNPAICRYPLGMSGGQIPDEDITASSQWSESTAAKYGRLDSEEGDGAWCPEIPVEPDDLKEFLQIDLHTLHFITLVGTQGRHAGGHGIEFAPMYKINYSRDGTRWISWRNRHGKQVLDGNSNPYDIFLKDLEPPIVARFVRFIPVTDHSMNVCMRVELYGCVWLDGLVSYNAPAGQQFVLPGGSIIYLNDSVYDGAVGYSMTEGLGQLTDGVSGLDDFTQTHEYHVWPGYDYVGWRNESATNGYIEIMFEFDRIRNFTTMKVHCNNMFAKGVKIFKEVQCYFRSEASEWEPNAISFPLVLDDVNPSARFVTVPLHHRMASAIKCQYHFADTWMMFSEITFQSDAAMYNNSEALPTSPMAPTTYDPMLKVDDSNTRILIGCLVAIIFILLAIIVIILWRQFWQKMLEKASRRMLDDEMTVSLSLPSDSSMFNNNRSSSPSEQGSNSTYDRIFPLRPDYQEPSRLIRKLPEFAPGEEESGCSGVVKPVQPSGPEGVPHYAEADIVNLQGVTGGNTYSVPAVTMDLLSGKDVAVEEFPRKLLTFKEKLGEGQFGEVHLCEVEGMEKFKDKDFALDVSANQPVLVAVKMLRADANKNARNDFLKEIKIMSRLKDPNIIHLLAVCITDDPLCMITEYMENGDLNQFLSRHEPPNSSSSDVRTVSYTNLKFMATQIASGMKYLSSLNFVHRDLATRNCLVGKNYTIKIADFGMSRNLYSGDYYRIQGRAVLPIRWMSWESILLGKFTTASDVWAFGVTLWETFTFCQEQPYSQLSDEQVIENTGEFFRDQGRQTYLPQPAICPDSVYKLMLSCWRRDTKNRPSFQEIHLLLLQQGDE
Experimental: as §1

T1 sequence (Q08345 19-913): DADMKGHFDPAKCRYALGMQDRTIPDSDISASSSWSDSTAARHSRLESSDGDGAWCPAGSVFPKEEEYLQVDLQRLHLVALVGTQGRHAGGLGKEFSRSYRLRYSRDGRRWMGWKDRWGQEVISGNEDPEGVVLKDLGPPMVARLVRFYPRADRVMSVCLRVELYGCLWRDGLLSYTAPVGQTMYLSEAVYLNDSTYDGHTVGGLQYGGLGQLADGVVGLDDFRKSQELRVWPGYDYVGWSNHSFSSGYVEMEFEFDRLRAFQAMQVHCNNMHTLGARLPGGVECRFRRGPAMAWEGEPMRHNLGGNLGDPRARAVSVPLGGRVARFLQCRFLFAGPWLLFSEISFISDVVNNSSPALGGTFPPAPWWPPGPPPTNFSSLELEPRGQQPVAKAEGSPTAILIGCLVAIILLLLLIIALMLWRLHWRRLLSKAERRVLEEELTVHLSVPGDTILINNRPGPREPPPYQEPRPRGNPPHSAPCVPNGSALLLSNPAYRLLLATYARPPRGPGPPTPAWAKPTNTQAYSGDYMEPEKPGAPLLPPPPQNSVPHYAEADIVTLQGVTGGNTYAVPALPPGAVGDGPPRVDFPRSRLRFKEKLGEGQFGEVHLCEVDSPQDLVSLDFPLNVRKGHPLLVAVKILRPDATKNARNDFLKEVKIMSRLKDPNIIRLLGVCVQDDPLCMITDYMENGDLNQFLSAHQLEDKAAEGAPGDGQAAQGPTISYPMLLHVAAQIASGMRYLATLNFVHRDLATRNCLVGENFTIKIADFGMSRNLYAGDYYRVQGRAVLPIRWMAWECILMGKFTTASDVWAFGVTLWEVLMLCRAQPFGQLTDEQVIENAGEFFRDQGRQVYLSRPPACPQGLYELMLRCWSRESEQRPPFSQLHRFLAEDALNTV

Ki [1] [nM]	Ki [2] [nM]	SMILES
< 5	5 to 25	Cc1ccc(C(=O)Nc2cncc(C(F)(F)F)c2)cc1[C@@H]1CCN(c2cncc(C(F)F)c2)C1 [Example 22, (S)-3-(1-(5-(difluoromethyl)pyridin-3-yl)pyrrolidin-3-yl)-4-methyl-N-(5-(trifluoromethyl)pyridin-3-yl)benzamide]
< 5	5 to 25	Cc1ccc(C(=O)Nc2cncc(C(F)(F)F)c2)cc1[C@@H]1CCN(c2cncc(C(=O)NCCN(C)C)c2)C1 [Example 23, (S)-N-(2-(dimethylamino)ethyl)-5-(3-(2-methyl-5-((5-(trifluoromethyl)pyridin-3-yl)carbamoyl)phenyl)pyrrolidin-1-yl)nicotinamide]
< 5	< 5	COCCNC(=O)c1cncc(N2CC[C@@H](c3cc(C(=O)Nc4cncc(C(F)(F)F)c4)ccc3C)C2)c1 [Example 24, (S)-N-(2-methoxyethyl)-5-(3-(2-methyl-5-((5-(trifluoromethyl)pyridin-3-yl)carbamoyl)phenyl)pyrrolidin-1-yl)nicotinamide]
< 5	5 to 25	COc1ncc(N2CC[C@@H](c3cc(C(=O)Nc4cncc(C(F)(F)F)c4)ccc3C)C2)cn1 [Example 25, (S)-3-(1-(2-methoxypyrimidin-5-yl)pyrrolidin-3-yl)-4-methyl-N-(5-(trifluoromethyl)pyridin-3-yl)benzamide]
< 5	< 5	Cc1ccc(C(=O)Nc2cncc(C(F)(F)F)c2)cc1[C@@H]1CCN(c2cncc(C#N)c2)C1 [Example 27, (S)-3-(1-(5-cyanopyridin-3-yl)pyrrolidin-3-yl)-4-methyl-N-(5-(trifluoromethyl)pyridin-3-yl)benzamide]
< 5	< 5	CC(=O)Nc1cncc(N2CC[C@@H](c3cc(C(=O)Nc4cncc(C(F)(F)F)c4)ccc3C)C2)c1 [Example 28, (S)-3-(1-(5-acetamidopyridin-3-yl)pyrrolidin-3-yl)-4-methyl-N-(5-(trifluoromethyl)pyridin-3-yl)benzamide]
< 5	< 5	CNC(=O)c1cncc(N2CC[C@@H](c3cc(C(=O)Nc4cncc(C(F)(F)F)c4)ccc3C)C2)c1 [Example 29, (S)-N-methyl-5-(3-(2-methyl-5-((5-(trifluoromethyl)pyridin-3-yl)carbamoyl)phenyl)pyrrolidin-1-yl)nicotinamide]
< 5	5 to 25	Cc1ccc(C(=O)Nc2cncc(C(F)(F)F)c2)cc1[C@@H]1CCN(c2cncc(C(=O)NCCO)c2)C1 [Example 30, (S)-N-(2-hydroxyethyl)-5-(3-(2-methyl-5-((5-(trifluoromethyl)pyridin-3-yl)carbamoyl)phenyl)pyrrolidin-1-yl)nicotinamide]
< 5	< 5	Cc1ccc(C(=O)Nc2cncc(C(F)(F)F)c2)cc1[C@@H]1CCN(c2cnccn2)C1 [Example 33, (S)-4-methyl-3-(1-(pyrazin-2-yl)pyrrolidin-3-yl)-N-(5-(trifluoromethyl)pyridin-3-yl)benzamide]

Further lines, the compound ahead of its results:

SMILES	Ki [1] [nM]	Ki [2] [nM]
Cc1ccc(C(=O)Nc2cc(C(F)(F)F)ncn2)cc1[C@@H]1CCN(c2cncc(C#N)c2)C1 [Example 8, (S)-3-(1-(5-cyanopyridin-3-yl)pyrrolidin-3-yl)-4-methyl-N-(6-(trifluoromethyl)pyrimidin-4-yl)benzamide]	< 5	5 to 25
Cc1ccc(C(=O)Nc2cc(OC(F)(F)F)ccn2)cc1[C@@H]1CCN(c2cncc(C(N)=O)c2)C1 [Example 9, (S)-5-(3-(2-methyl-5-((4-(trifluoromethoxy)pyridin-2-yl)carbamoyl)phenyl)pyrrolidin-1-yl)nicotinamide]	< 5	< 5
Cc1ccc(C(=O)Nc2ccc(OC(F)(F)F)cn2)cc1[C@@H]1CCN(c2cncc(C(N)=O)c2)C1 [Example 10, (S)-5-(3-(2-methyl-5-((5-(trifluoromethoxy)pyridin-2-yl)carbamoyl)phenyl)pyrrolidin-1-yl)nicotinamide]	< 5	5 to 25
Cc1ccc(C(=O)Nc2cc(C(C)(C)C)on2)cc1[C@@H]1CCN(c2cncc(C(N)=O)c2)C1 [Example 11, (S)-5-(3-(5-((5-(tert-butyl)isoxazol-3-yl)carbamoyl)-2-methylphenyl)pyrrolidin-1-yl)nicotinamide]	< 5	< 5
Cc1ccc(C(=O)Nc2cc(OC(F)(F)F)ccn2)cc1[C@@H]1CCN(c2cncnc2)C1 [Example 12, (S)-4-methyl-3-(1-(pyrimidin-5-yl)pyrrolidin-3-yl)-N-(4-(trifluoro-methoxy)pyridin-2-yl)benzamide]	< 5	< 5
Cc1ccc(C(=O)Nc2cc(C(C)(C)C)n(C)n2)cc1[C@@H]1CCN(c2cncnc2)C1 [Example 13, (S)-N-(5-(tert-butyl)-1-methyl-1H-pyrazol-3-yl)-4-methyl-3-(1-(pyrimidin-5-yl)pyrrolidin-3-yl)benzamide]	< 5	< 5
Cc1ccc(C(=O)Nc2cc(C(C)(C)C(F)(F)F)on2)cc1[C@@H]1CCN(c2cncnc2)C1 [Example 14, (S)-4-methyl-3-(1-(pyrimidin-5-yl)pyrrolidin-3-yl)-N-(5-(1,1,1-trifluoro-2-methylpropan-2-yl)isoxazol-3-yl)benzamide]	< 5	< 5
Cc1ccc(C(=O)Nc2cc(C(F)(F)F)ccn2)cc1[C@@H]1CCN(c2cncnc2)C1 [Example 15, (S)-4-methyl-3-(1-(pyrimidin-5-yl)pyrrolidin-3-yl)-N-(4-(trifluoromethyl)pyridin-2-yl)benzamide]	< 5	< 5
Cc1ccc(C(=O)Nc2cc(C(C)(C)C)on2)cc1[C@@H]1CCN(c2cncnc2)C1 [Example 16, (S)-N-(5-(tert-butyl)isoxazol-3-yl)-4-methyl-3-(1-(pyrimidin-5-yl)pyrrolidin-3-yl)benzamide]	< 5	< 5
Cc1ccc(C(=O)Nc2cc(C(C)(C)C)nn2C)cc1[C@@H]1CCN(c2cncnc2)C1 [Example 17, (S)-N-(3-(tert-butyl)-1-methyl-1H-pyrazol-5-yl)-4-methyl-3-(1-(pyrimidin-5-yl)pyrrolidin-3-yl)benzamide]	< 5	5 to 25
Cc1ccc(C(=O)Nc2cncc(OC(F)(F)F)c2)cc1[C@@H]1CCN(c2cncnc2)C1 [Example 18, (S)-4-methyl-3-(1-(pyrimidin-5-yl)pyrrolidin-3-yl)-N-(5-(trifluoromethoxy)pyridin-3-yl)benzamide]	< 5	< 5
Cc1ccc(C(=O)Nc2cc(C(C)(C)C)no2)cc1[C@@H]1CCN(c2cncnc2)C1 [Example 19, (S)-N-(3-(tert-butyl)isoxazol-5-yl)-4-methyl-3-(1-(pyrimidin-5-yl)pyrrolidin-3-yl)benzamide]	< 5	< 5
Cc1ccc(C(=O)Nc2ccc(OC(F)(F)F)cn2)cc1[C@@H]1CCN(c2cncnc2)C1 [Example 20, (S)-4-methyl-3-(1-(pyrimidin-5-yl)pyrrolidin-3-yl)-N-(5-(trifluoromethoxy)pyridin-2-yl)benzamide]	< 5	5 to 25
Cc1ccc(C(=O)Nc2cc(OC(F)F)ccn2)cc1[C@@H]1CCN(c2cncnc2)C1 [Example 21, (S)-N-(4-(difluoromethoxy)pyridin-2-yl)-4-methyl-3-(1-(pyrimidin-5-yl)pyrrolidin-3-yl)benzamide]	< 5	< 5
Cc1ccc(C(=O)Nc2cncc(C(F)(F)F)c2)cc1[C@@H]1CCN(c2cnn3ccncc23)C1 [Example 32, (S)-4-methyl-3-(1-(pyrazolo[1,5-a]pyrazin-3-yl)pyrrolidin-3-yl)-N-(5-(trifluoromethyl)pyridin-3-yl)benzamide]	< 5	< 5
Cc1ccc(C(=O)Nc2cncc(C(F)(F)F)c2)cc1[C@@H]1CCN(c2cnn3ccccc23)C1 [Example 34, (S)-4-methyl-3-(1-(pyrazolo[1,5-a]pyridin-3-yl)pyrrolidin-3-yl)-N-(5-(trifluoromethyl)pyridin-3-yl)benzamide]	< 5	5 to 25
